Experimental data published in ChEMBL document CHEMBL1152018, “Molecular design of novel PGI2 agonists without PG skeleton. II” (Bioorg Med Chem Lett, 1995).

What was measured:
[1] = target: Prostacyclin receptor (Homo sapiens, UniProt P43119); test: Displacement of [3H]iloprost from Prostaglandin I2 receptor of human platelets
[2] = species: Homo sapiens; test: Inhibitory activity against ADP-induced platelet aggregation using human platelet rich plasma at a concentration of 4 uM by functional assay
[3] = species: Canis familiaris; test: Evaluated for ADP-induced antiaggregation of dog platelets; type: functional; conditions: Canis lupus familiaris
[4] = species: Cavia porcellus; test: Evaluated for ADP-induced antiaggregation of guinea pig platelets; type: functional
[5] = species: Cavia porcellus; test: Effective dose for ex vivo inhibition of platelet aggregation for four hours in guinea pigs; type: functional, organism-based

Chain of Prostacyclin receptor (P43119 whole entry): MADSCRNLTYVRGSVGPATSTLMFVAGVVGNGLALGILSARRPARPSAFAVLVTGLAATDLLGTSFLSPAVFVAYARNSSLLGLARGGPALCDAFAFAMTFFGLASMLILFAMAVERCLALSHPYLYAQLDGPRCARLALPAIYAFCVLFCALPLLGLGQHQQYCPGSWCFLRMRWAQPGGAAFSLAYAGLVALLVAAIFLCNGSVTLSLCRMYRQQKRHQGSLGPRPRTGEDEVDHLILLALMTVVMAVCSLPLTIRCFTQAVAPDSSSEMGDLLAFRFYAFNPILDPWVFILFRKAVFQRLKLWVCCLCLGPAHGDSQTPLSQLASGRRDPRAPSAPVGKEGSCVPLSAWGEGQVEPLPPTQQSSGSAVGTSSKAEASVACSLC

IC50 [1] [nM] | IC50 [2] [nM] | IC50 [3] [nM] | IC50 [4] [nM] | EC50 [5] [mg/kg] | Compound
2200 | 1900 |  |  |  | C/C(C[C@@H]1CCc2c(cccc2OCC(=O)O)C1)=N\OC(c1ccccc1)c1ccccc1
2100 | 2400 |  |  |  | CCC/C(CCC1CCCc2c(OCC(=O)O)cccc21)=N\OC(c1ccccc1)c1ccccc1 (configuration not stated)
220 |  |  |  |  | C/C(C[C@H]1CCc2c(cccc2OCC(=O)O)C1)=N\OC(c1ccccc1)c1ccccc1
 | 130 |  |  |  | CCC/C(C[C@H]1CCc2c(cccc2OCC(=O)O)C1)=N\OC(c1ccccc1)c1ccccc1
380 |  |  |  |  | C/C(CC1CCc2c(cccc2OCC(=O)O)C1)=N\OC(c1ccccc1)c1ccccc1 (configuration not stated)
150 |  | 7300 | 1900 | 0.82 | CCC/C(CC1CCc2c(cccc2OCC(=O)O)C1)=N\OC(c1ccccc1)c1ccccc1 (configuration not stated) [AP-227]
5300 | 12000 |  |  |  | C/C(CC1CCc2c(cccc2OCC(=O)O)C1)=N\OCc1ccccc1 (configuration not stated)
150 | 70 |  |  |  | CC/C(CC1CCc2c(cccc2OCC(=O)O)C1)=N\OC(c1ccccc1)c1ccccc1 (configuration not stated)
1400 | 70 |  |  |  | CCCCC[C@H](O)/C=C/[C@H]1[C@H](O)CC(=O)[C@@H]1CCCCCCC(=O)O [ALPROSTADIL]
